These results are taken from BindingDB's records for doi:10.3109/14756366.2011.595713 (Suven Life Sciences Ltd, 2012).

Sequence of 5-hydroxytryptamine receptor 6 (P50406 whole entry): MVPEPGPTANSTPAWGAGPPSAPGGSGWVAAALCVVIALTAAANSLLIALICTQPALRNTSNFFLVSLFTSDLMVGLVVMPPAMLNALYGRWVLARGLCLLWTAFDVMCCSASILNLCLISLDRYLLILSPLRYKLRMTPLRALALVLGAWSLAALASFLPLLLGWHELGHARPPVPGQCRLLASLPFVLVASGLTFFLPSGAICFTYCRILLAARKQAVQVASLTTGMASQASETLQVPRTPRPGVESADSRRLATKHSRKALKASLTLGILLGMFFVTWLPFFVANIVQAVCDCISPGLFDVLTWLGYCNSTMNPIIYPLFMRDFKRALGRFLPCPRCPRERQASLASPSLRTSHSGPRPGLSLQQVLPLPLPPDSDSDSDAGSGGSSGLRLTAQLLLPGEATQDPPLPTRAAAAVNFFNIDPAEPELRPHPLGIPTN

The target of this assay is 5-hydroxytryptamine receptor 6 (Homo sapiens, UniProt P50406). Nature of the assay: Radioligand-Binding Assay. The note with it: pH 7.4; 37 °C. The protocol:
In brief, receptor source and radioligand used were human recombinant expressed in HEK-293 cells and [3H] LSD (60-80 Ci/mmol), respectively. The final ligand concentration was 1.5 nM and non-specific determinant was methiothepin mesylate ([…]). The reference compound and positive control is methiothepin mesylate. Reactions were carried out in 50 mM Tris-HCl (pH 7.4) containing 10 mM MgCl2, 0.5 mM EDTA for 60 min at 37°C. The reaction was terminated by rapid vacuum filtration onto glass fibre filters.
The compound `CC(C)Oc1ccc2c(c1)C(CC(C)N(C)C)=C1c3ccccc3S(=O)(=O)C12` (stereo unspecified) [2-Isopropoxy-10-[(2-N,N-dimethylamino-2-methyl)ethyl]benzo[d] isothiazolo[3,2-a]indol-S,S-dioxide (19)] had a Ki of 239 nM.
To `CCOc1ccc2c(c1)C(CC(C)N(C)C)=C1c3ccccc3S(=O)(=O)C12` (stereo unspecified) [2-Ethoxy-10-[(2-N,N-dimethylamino-2-methyl)ethyl]benzo[d]isothiazolo[3,2-a]indol-S,S-dioxide (17)] belongs 11.1 nM.
Next, `CN(C)CCC1=C2c3ccccc3S(=O)(=O)C2c2ccc(F)cc21` (stereo unspecified) [10-(2-N,N-Dimethylaminoethyl)-2-fluorobenzo[d]isothiazolo[3,2-a]indol-S,S-dioxide (7)]: 267 nM; `CN(C)CCC1=C2c3ccccc3S(=O)(=O)C2c2ccccc21` (stereo unspecified) [10-(2-N,N-Dimethylaminoethyl)benzo[d]isothiazolo[3,2-a]indol-S,S-dioxide (6)]: 246 nM.
In the case of `CC(CC1=C2c3ccccc3S(=O)(=O)C2c2ccc(OCC3CCCCC3)cc21)N(C)C` (stereo unspecified) [2-Cyclohexylmethyloxy-10-[(2-N,N-dimethylamino-2-methyl)ethyl]benzo[d] isothiazolo[3,2-a]indol-S,S-dioxide (20)], the Ki was > 1000 nM.
As for `COc1ccc2c(c1)C(CCN(C)C)=C1c3ccccc3S(=O)(=O)C12` (stereo unspecified) [2-Methoxy-10-(2-N,N-dimethylaminoethyl)benzo[d]isothiazolo[3,2-a]indol-S,S-dioxide (14)], the affinity, expressed as Ki, was 96 nM.
Consider `CC(CC1=C2c3ccccc3S(=O)(=O)C2c2ccc(Br)cc21)N(C)C` (stereo unspecified) [2-Bromo-10-[(2-N,N-dimethylamino-2-methyl)ethyl]benzo[d]isothiazolo[3,2-a]indol-S,S-dioxide (13)], for which affinity was put at a Ki of 54.1 nM.
`CCC(CC1=C2c3ccccc3S(=O)(=O)C2c2ccc(OC)cc21)N(C)C` (stereo unspecified) [2-Methoxy-10-[(2-N,N-dimethylamino-2-ethyl)ethyl]benzo[d]isothiazolo[3,2-a]indol-S,S-dioxide (16)] displayed a Ki of 28.3 nM. Against the preceding compound, the Ki is about 1.9-fold lower.
Compound `CC(CC1=C2c3ccccc3S(=O)(=O)C2c2ccc(OCc3ccccc3)cc21)N(C)C` (stereo unspecified) [2-Benzyloxy-10-[(2-N,N-dimethylamino-2-methyl)ethyl]benzo[d]isothiazolo[3,2-a]indol-S,S-dioxide (18)] registered a Ki of 100 nM.
`COc1ccc2c(c1)C(CC(C)N(C)C)=C1c3ccccc3S(=O)(=O)C12` (stereo unspecified) [2-Methoxy-10-[(2-N,N-dimethylamino-2-methyl)ethyl)]benzo[d]isothiazolo[3,2-a]indol-S,S-dioxide (15)] yielded a Ki of 11.6 nM.
Take `CN(C)CCC1=C2c3ccccc3CC2c2c1ccc1ccccc21` (stereo unspecified) [10-(2-N,N-dimethylaminoethyl)benzo[d]isoindolo[2,1-a]indole (28)]: the Ki was 92.6 nM. Against the preceding compound, the Ki is about 8-fold higher.

By Ki is commonly meant the dissociation constant of the complex between target and ligand, obtained from inhibition or displacement. The low end stands for tighter binding, the high end for weaker binding.
